Data on one compound can be found in patent US20230357248A1, “PYRROLOPYRIMIDINE COMPOUND AS BTK INHIBITOR AND USE THEREOF” (MEDSHINE DISCOVERY INC., priority 2019, published 2023).

Molecules are shown by their SMILES. Marks after values point to notes of the source that are not given here.

One data set relates to rat plasma protein. As to the kind of experiment: In vivo plasma protein binding (PPB) assay in rat. Type of data set: in vitro ADME. The settings on record: rat in vivo plasma samples; dialysis 4 h 37° C.; average of 3 or 4 results. As to the method: 1.1 Preparation of Dialysis Membrane and Matrix
On the day of the assay, frozen plasma was thawed in running cold tap water. After the plasma was completely thawed, the plasma was centrifuged at 3220×g for 5 min, and suspensions and sediments in the plasma were removed.
A double-layer dialysis membrane was soaked in ultrapure water for about 1 h, and then taken out. The double-layer dialysis membrane was divided into two parts, and then soaked in ethanol-water (20:80, v:v) solution for 20 min or placed at 2-8° C. with a validity period of 1 month. Before the start of the assay, the dialysis membrane was rinsed twice with ultrapure water and soaked in ultrapure water for another 20 min for use.
1.2 The Mixing Steps of Compound Sample and the Dilution Process of Control Compound
1.2.1 The Mixing Steps of Compound Sample
An appropriate amount of original samples were transferred to a collection tube of mixed samples, and the samples in the collection tube of mixed samples were mixed thoroughly.
1.2.2 The Dilution Process of the Control Compound
The control compound was dissolved in dimethyl sulfoxide to obtain a 10 mM stock solution. A working solution of 400 μM was obtained by dilution with dimethyl sulfoxide. Preparation process of plasma sample: 995 μL of blank plasma was weighed, and 5 μL of warfarin working solution was added. […]

A short description of data set [1]: Pharmacokinetic evaluation in CD-1 mouse (intravenous). Type of data set: in vivo. The settings on record: male, plasma, IV 0.21 mg/kg. As to the method:
Assay purpose: To assay the pharmacokinetics of the compound in CD-1 mouse (intravenous)
Pharmacokinetic study of oral and intravenously injected compound 4 and reference example 1 (compound 005-1) in CD-1 mouse
Compound 4 and reference example 1 were mixed with the solvent (10% NMP/60% PEG400/30% H2O). The mixture was vortexed and sonicated to prepare a clarified solution of 0.1 mg/mL. 7- to 10-week old CD-1 male mice were selected, and the candidate compound solution was administered intravenously at a dose of 0.21 mg/kg.
(§1) Whole blood was collected for a certain period of time to prepare the plasma. Drug concentration was analyzed by LC-MS/MS, and pharmacokinetic parameters were calculated by Phoenix WinNonlin software (Pharsight, USA).

The subject of data set [2] is xenograft tumor of human diffuse large B lymphoma TMD8. Kind of data set: Xenograft tumor model of TMD8 in SCID mouse. Type of data set: in vivo. As to the method: Xenograft tumor model of TMD8 in SCID mouse:
Assay method: A tumor model of subcutaneously transplanted human diffuse large B lymphoma in mice was established. Tumor cells in logarithmic growth phase were collected, counted, and then resuspended in RPMI1640. The cell suspension was adjusted to a concentration of 4×10^7/mL, and mixed well with Matrigel (1:1). Tumor cells were inoculated subcutaneously on the right back of the mouse with a 1 mL syringe ([…]), 4×10^6 cells/mouse. When the animal tumor reached about 100-300 mm^3, the tumor-bearing mice were randomly divided into 6 groups according to the size of the tumor volume, with 6 mice in each group. On the day of the assay, the animals were administered the corresponding drugs according to the corresponding groups. The first group G1 was set as a negative control group, which was administered 10% NMP/60% PEG400/30% H2O by gavage alone. The second group G2 was set as a positive control group, which was given reference example 1 (compound 005-1) at a dose of 30 mg/kg. The third group G3 was given compound 4 at a dose of 30 mg/kg, once a day, for a total of 15 days.
During the assay, animal weight and tumor size were measured 3 times a week, and clinical symptoms of animals were observed and recorded every day. Each dosing was referenced to the most recent animal weight.
For tumor measurement, length (a) and width (b) were measured with digital vernier calipers, and the calculation formula for tumor volume (TV) was: TV=a×b^2/2.

A short description of data set [3]: Pharmacokinetic evaluation in CD-1 mouse (oral). Type of data set: in vivo. The settings on record: 3.1 mg/kg. As to the method:
Assay purpose: To assay the pharmacokinetics of the compound in CD-1 mouse (oral)
Pharmacokinetic study of oral and intravenously injected compound 4 and reference example 1 (compound 005-1) in CD-1 mouse.
Compound 4 and reference example 1 (compound 005-1) were mixed with the solvent (10% NMP/60% PEG400/30% H2O). The mixture was vortexed and sonicated to prepare a clarified solution of 0.6 mg/mL. 7- to 10-week old CD-1 male mice were selected, and the candidate compound solution was administered […] at a dose of 3.1 mg/kg.
as §1

[4] abbreviates: AUCu = AUC0-inf * Unbound PPB (Mouse).
[5] abbreviates: TMD8 xenograft in SCID mouse, 30 mg/kg PO, QD × 15, 14th day.

The AUC(0-inf) is the area under the concentration-time curve extrapolated to infinity. Higher therefore signals high exposure. The Vd is a proportionality between amount in the body and measured concentration, not a real space. Lower therefore signals little distribution into tissue. As usually defined, the clearance is a measure of how efficiently the substance is removed, as volume per time. Low values mean a low capacity for elimination, high ones a high capacity for elimination. Broadly, the half-life is how long it takes for the measured level to halve. Low readings indicate fast loss, high ones slow loss. Usually AUC stands for concentration integrated over time. Higher therefore signals more exposure. In general, Cmax refers to the highest concentration seen after dosing. Usually bioavailability stands for dose-corrected exposure relative to a reference, in per cent. Turning to `CO[C@@H]1C[C@@H](CO)OC[C@@H]1Nc1ncnc2[nH]cc(C(=O)c3ccc(Oc4ccccc4)cc3Cl)c12` [Compound 4], in the data set on rat plasma protein, the “Unbound PPB” value was 0.2% ^a. In data set [1], this compound came in with an AUC(0-inf) of 3.11 µM·h, a C0 of 0.562 µM, a Vd of 0.85 L/kg and a clearance of 0.127 L/h/kg. The compound further gave a half-life in data set [1] of 4.65 h. Further, the AUC in data set [1] (setting [4]) was found to be 0.0124 µM·h. Moreover, the “inhibitory effect on xenograft tumor of human diffuse large B lymphoma TMD8 in mouse (in words)” value in data set [2] (30 mg/kg once a day) is “a certain inhibitory effect”. The “relative tumor proliferation rate T/C” value in data set [2] (5th day, 30 mg/kg once a day) turned out to be 66.33%. In data set [2] (14th day, 30 mg/kg once a day), the “relative tumor proliferation rate” value was determined as 21.53% and the “tumor volume inhibition rate TGI (%)” value stood at 79.04%. For the same compound, in data set [2] (setting [5]), the “Tumor volume inhibition rate TGI” value is 79.04% and the “relative tumor proliferation rate T/C” value turned out to be 21.53%. In data set [3] (setting [4]), this compound returned an AUCu of 0.133 µM·h. In data set [3] (male, plasma), this compound showed an AUC(0-inf) of 33.2 µM·h, a Cmax of 2.98 µM, a bioavailability of 71.7% and a half-life of 3.73 h.
